Source: patent publication US6498195B2, “Use of 1-propanone-1-(2,4-dihydroxyphenyl)-3-hydroxy-3-(4′-hydroxyphenyl) as an anticarcinogenic agent” (Rutgers, The State University of New Jersey, priority 2000, dated 2002)
Like-named read-outs stand apart in the source and are kept apart here.

Columns and labels:
bcl-2 = assay: Bcl-2 expression and phosphorylation assay (Western blot mobility shift); type: cell-based; conditions: for bcl-2 phosphorylation: immunoblotting, slower migrating band vs vehicle control, cell line not stated
Protocol: Analysis of bcl-2 protein expression was performed using a Western blot assay as previously described (Haldar, S. et al. 1996. Cancer Res. 56:1253; Haldar, S. et al. 1995. Proc. Natl. Acad. Sci. USA 92:4507-4511). Protein identification was made using a monoclonal bcl-2 primary antibody (DAKO Corporation) and secondary goat anti-mouse horseradish peroxidase conjugated antibody (Bio-Rad Laboratories, Richmond, CA). The phosphorylation of bcl-2 was determined by mobility shifts in the Western bolt as described by Haldar (Haldar, S. et al. 1996. Cancer Res. 56:1253; Haldar, S. et al. 1995. Proc. Natl. Acad. Sci. USA 92:4507-4511).

MCF-7 tumor cells = assay: Cell cycle analysis by flow cytometry; type: cell-based
Protocol: Cells were treated for 24 hours, incubated with 10 μM BrdU for 45 minutes at 37° C. Cells were then washed with ice-cold PBS, resuspended in 200 μl PBS and fixed with cold 70% ethanol. The cells were resuspended, incubated for 30 minutes in 2 N HCl/0.5% Triton X-100 in PBS, and neutralized by rinsing once in 0.1 M sodium tetraborate (pH 8.5). Fluorescein isothiocyanate (FITC)-conjugated anti-BrdU antibody (Becton Dickinson) was added (10 μg/sample) in 50 μl of 0.5% Tween 20/1% BSA in PBS and incubated for 30 minutes. The cells were washed and resuspended in 1 ml of PBS containing 5 μg/ml propidium iodide. Fluorescence intensity was determined by quantitative flow cytometry and profiles were generated on a Becton Dickinson FACScan. A minimum of 10,000 cells were analyzed.

microtubule structure [1] = assay: Microtubule assay (indirect immunofluorescence); type: cell-based
Protocol: Microtubule structure was assessed by indirect immunofluorescence as previously described (Zhang, C. C. et al. 1998. Oncogene 16:1617-1624). Cells were grown on coverslips and fixed in ice-cold methanol at −20° C. after drug treatment. The cells were then incubated with a 1:100 dilution of monoclonal anti-alpha-tubulin antibody (Clone DM 1A, mouse ascites fluid; Sigma) in 3% BSA in PBS for 30 minutes and washed in 3% BSA in PBS for 10 minutes. This was followed by incubation with FITC-goat anti-mouse IgG (1:50 dilution) as a secondary antibody for 30 minutes and washed in 3% BSA/PBS and visualized under a epifluorescent microscope (Zeiss AXIOSKOP) using a plan-NEOFLUAR 100 X oil immersion objective. The photographs were captured on a cooled CCD camera (DAGE-MTI) using Scion Image.

MCF-7 cells = test system: MCF-7 cells
Protocol: The Apoalert Annexin V-EGFP method (CLONTECH, Palo Alto, Calif.) was used to assess for apoptosis. Briefly, tumor cells were treated for 2 hours and cells were washed with fixing solution and stained with Annexin V-EGFP and propidium iodide for 15 minutes in the dark. Cells were viewed using a Nikin Eclipse TE-200 (Nikon Corporation, Tokyo, Japan) inverted fluorescent microscope. Photographs were captured using a SPOT digital camera (Diagnostic, Inc., Sterling Heights, Mich.) in combination with SPOT […] (Pharmingen, San Diego, Calif.). Cells (1×10^6 per dish) were treated for 12 hours, washed with PBS, and fixed in 1% paraformaldehyde in ice for 30 minutes. After fixation, cells were washed twice with PBS and fixed in 70% ethanol. The pellets were washed and resuspended in 50 μl of the DNA labeling solution containing Br-dUTP and TdT enzyme and incubated for 60 minutes at 37° C. After incubation, the pellets were washed, incubated with FITC labeled anti-BrdU antibody in the dark for 30 minutes at room temperature, and stained with propidium iodide and RNase. The stained cells were analyzed by flow cytometry after 30 minutes. Cell viability was assessed by the tetrazolium dye method as previously described (Scudiero, D.A. et al. 1988. Cancer Res. 48:4827-4833).

microtubule structure [2] = conditions: stated as 'has been shown'; cited from earlier work

For O=C(CC(O)c1ccc(O[C@@H]2O[C@H](CO)[C@@H](O)[C@H](O)[C@H]2O)cc1)c1ccc(O)cc1O (single isomer, unassigned; peak 1) [peak 1, 1-propanone-1-(2,4-dihydroxyphenyl)-3-hydroxy-3-(4′-hydroxyphenyl-4′o-beta-D-glucapyranoside)], the bcl-2 phosphorylation (bcl-2) was “induce bcl-2 phosphorylation”.

In the case of O=C(CC(O)c1ccc(O)cc1)c1ccc(O[C@@H]2O[C@H](CO)[C@@H](O)[C@H](O)[C@H]2O)cc1O (single isomer, unassigned; peak 2) [peak 2, 1-propanone-1-(2,4-dihydroxyphenyl-4′-o-beta-D-glucopyranoside)-3-hydroxy-3-(4′-hydroxyphenyl)], the bcl-2 phosphorylation (bcl-2) is reported as “induce bcl-2 phosphorylation”.

In the case of O=C(CC(O)c1ccc(O)cc1)c1ccc(O)cc1O (stereo not shown) [DC, 1-propanone-1-(2,4-dihydroxyphenyl)-3-hydroxy-3-(4′-hydroxyphenyl)], the “phosphorylation of bcl-2” value (bcl-2; DUPro-1 tumor cells) is reported as “induce phosphorylation of bcl-2”, the “phosphorylation of bcl-2” value (bcl-2; MCF-7 tumor cells) is reported as “induce phosphorylation of bcl-2” and the bcl-2 phosphorylation (bcl-2) is reported as “induce bcl-2 phosphorylation”. For the same molecule, the “G2/M cell cycle arrest” value (MCF-7 tumor cells) was “induced a G2/M cell cycle arrest”, the “effect on microtubule structure” value (microtubule structure [1]) was “induce microtubule fragmentation” and the IC50 (MCF-7 cells; read-out: IC50, decrease of cell viability, 72 hours) was 13 µM. The “apoptosis (extracellular phosphatidylserine detection)” value (MCF-7 cells; similar to 10 μM camptothecin control) was “induced apoptosis”.

For CC(=O)O[C@H]1C(=O)[C@@]2(C)[C@H]([C@H](OC(=O)c3ccccc3)[C@]3(O)C[C@H](OC(=O)[C@H](O)[C@@H](NC(=O)c4ccccc4)c4ccccc4)C(C)=C1C3(C)C)[C@]1(OC(C)=O)CO[C@@H]1C[C@@H]2O [paclitaxel], the “effect on microtubule structure” value (microtubule structure [2]) is listed as “induce microtubule bundles”.
